Biological target: T1, UGT1A9 (Homo sapiens, UniProt O60656)
T1 construct: ultrapooled human liver microsomes (0.2 mg/mL), 5 mM UDPGA; from tissue; host or cells: ultrapooled human liver microsomes
T1 sequence (O60656 26-530): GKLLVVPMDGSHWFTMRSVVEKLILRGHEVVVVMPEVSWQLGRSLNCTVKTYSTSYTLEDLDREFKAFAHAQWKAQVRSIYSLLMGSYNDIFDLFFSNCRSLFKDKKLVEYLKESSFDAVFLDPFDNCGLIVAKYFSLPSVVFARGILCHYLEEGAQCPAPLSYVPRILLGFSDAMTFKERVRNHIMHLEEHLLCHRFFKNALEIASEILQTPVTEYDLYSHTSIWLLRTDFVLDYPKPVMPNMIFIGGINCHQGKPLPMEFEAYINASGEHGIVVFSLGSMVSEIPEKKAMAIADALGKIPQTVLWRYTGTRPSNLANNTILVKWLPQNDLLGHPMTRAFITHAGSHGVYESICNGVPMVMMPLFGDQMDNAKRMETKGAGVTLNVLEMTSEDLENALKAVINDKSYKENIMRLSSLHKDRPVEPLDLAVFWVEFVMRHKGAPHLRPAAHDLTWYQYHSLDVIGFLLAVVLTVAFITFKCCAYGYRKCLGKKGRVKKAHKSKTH
Assay: UGT1A9-catalyzed mycophenolic acid glucuronidation in human liver microsomes
Type: in vitro ADME
Settings: at 50 µM
Protocol: The inhibitory effects of EAM-2201 on UGT1A1, UGT1A3, UGT1A4, UGT1A6, UGT1A9 and UGT2B7 were evaluated using LC-MS/MS and the cocktail of UGT substrates as previously described. Each incubation mixture was prepared in a final volume of 100 µL as follows: ultrapooled human liver microsomes (0.2 mg/mL), 5 mM UDPGA, 10 mM magnesium chloride, alamethicin (25 µg/mL), 50 mM Tris buffer (pH 7.4), various concentrations of EAM-2201 in DMSO (final concentrations of 1–50 µM, 0.5% DMSO) and the UGT enzyme-specific substrates of two cocktail sets (set A: 0.5 µM SN-38, 2 µM chenodeoxycholic acid and 0.5 µM trifluoperazine; set B: 1 µM N-acetylserotonin, 0.2 µM mycophenolic acid and 1 µM naloxone, acetonitrile content, 0.5%). […] Supernatant from sets A and B (50 µL of each) was mixed and aliquots (5 µL) were analyzed by LC-MS/MS. […]
The metabolites formed from the six UGT cocktail substrates were simultaneously measured using LC-MS/MS [41]. […] Each metabolite was quantified via SRM in the negative ion mode: chenodeoxycholic acid 24-acyl-β-glucuronide, 567.2 > 391.0; mycophenolic acid glucuronide, 495.2 > 318.9; and propofol glucuronide (IS), 353.3 > 177.1; and in the positive ion mode: SN-38 glucuronide, 569.0 > 393.0; trifluoperazine glucuronide, 584.2 > 408.1; N-acetylserotonin-β-D-glucuronide, 395.2 > 219.0; naloxone 3-β-D-glucuronide, 504.0 > 310.0; and meloxicam (IS), 352.0 > 115.1. […]

SMILES: CCc1ccc(C(=O)c2cn(CCCCCF)c3ccccc23)c2ccccc12 [EAM-2201, (4-ethyl-1-naphthalenyl)[1-(5-fluoropentyl)-1H-indol-3-yl]-methanone]
- inhibition of UGT1A9-catalyzed mycophenolic acid glucuronidation: negligibly inhibited

From article PMC6017357, “In Vitro Inhibitory Effects of Synthetic Cannabinoid EAM-2201 on Cytochrome P450 and UDP-Glucuronosyltransferase Enzyme Activities in Human Liver Microsomes” (Molecules : A Journal of Synthetic Chemistry and Natural …, 2018)
